Results: patent publication US9809623B2, “α4β7 peptide monomer and dimer antagonists” (Protagonist Therapeutics, Inc., priority 2014, dated 2017)
pIC50: −log10 of the molar value. Numbered stars: 1 amine (or outer) side, 2 acyl side, 3 side chain; on linkers, the order of the positions; unused ones are H or OH. Bridge positions count the residues as written; N and C are the ends. Square brackets hold non-standard residues; d marks the D form. Peptide text beside a SMILES is read from it. I, II: the chains in the order shown. Phe(4-tBu) = CC(C)(C)c1ccc(C[C@H](N)C(=O)O)cc1; Diglycolyl = O=C(COCC(=O)[*:2])[*:1]; NMeR = CN[C@@H](CCCNC(=N)N)C(=O)O; β3hE = N[C@@H](CCC(=O)O)CC(=O)O; NMeK = CN[C@@H](CCCCN)C(=O)O; Pen = CC(C)(S)[C@H](N)C(=O)O; dNMeK = CN[C@H](CCCCN)C(=O)O

Legend:
α4β7 = α4β7 (Homo sapiens, UniProt P13612+P26010); assay: PBMC Memory T Cell Adhesion Assay, adhesion to MAdCAM-1; type: cell-based; conditions: Table 4-B; read-out: Cell Adhesion PBMC IC50
Outline: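 Fresh human CD4+/CD45RO+ memory T cells in binding medium with 1 mM MnCl2 were preincubated with compound for 1.5 h at 37° C. on plates coated with Fc-captured MAdCAM-1 (400 ng/well). Adherent cells were read by fluorescence (Ex 485/Em 530). IC50 came from four-parameter nonlinear regression of RFU versus log concentration.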

α4β1 = biological target: T1, α4β1 (Homo sapiens, UniProt P05556+P13612, DEL729-798); assay: α4β1-VCAM Competition ELISA; type: binding; conditions: Table 4-B; read-out: ELISA_α4β1 IC50
T1 construct: purchased R&D Systems 5668-A4
Outline: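 Recombinant α4β1 (60 nM final) competed with serially diluted peptides (top final 100 μM) for VCAM-1 Fc coated at 400 ng/well, in Tris pH 7.6 with 1 mM MnCl2 or MgCl2, for 2 h at 37 °C. Bound integrin was detected with anti-CD49d 9F10 plus HRP anti-mouse IgG, using TMB read at 450 nm.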

[1] = Simulated Gastric Fluid (SGF) Assay; type: in vitro ADME; conditions: pig, simulated gastric fluid (SGF) with porcine pepsin, pH 2; Table 4-C, t1/2
Experimental: SGF was prepared by adding 20 mg NaCl, 32 mg porcine pepsin (MP Biochemicals, catalog 02102599), and 70 μl HCl to 10 ml water (final pH=2). Aliquots of SGF (0.5 ml each) were pre-warmed at 37° C. For each peptide tested, to start the reaction, 1 μl of peptide stock solution (10 mM in DMSO) was added to 0.5 ml SGF and thoroughly mixed such that the final peptide concentration was 20 μM. The reactions were incubated at 37° C. with gentle shaking. At each time point (0, 15, 30, 60 min), 50 μl aliquots were removed and added to 200 ul acetonitrile containing 0.1% formic acid to quench the reaction. Samples were stored at 4° C. until the end of the experiment and centrifuged at 10,000 rpm for 5 minutes. Aliquots of the supernatant were removed, diluted 1:1 into distilled water containing internal standard, and analyzed by LCMS/MS. Percent remaining at each timepoint was calculated based on the peak area response ratio of test compound to internal standard. Time 0 was set to 100%, and all later timepoints were calculated relative to time 0. Half-lives were calculated by fitting to a first-order exponential decay equation using GraphPad.

α4β7, sequence (P13612 34-1032): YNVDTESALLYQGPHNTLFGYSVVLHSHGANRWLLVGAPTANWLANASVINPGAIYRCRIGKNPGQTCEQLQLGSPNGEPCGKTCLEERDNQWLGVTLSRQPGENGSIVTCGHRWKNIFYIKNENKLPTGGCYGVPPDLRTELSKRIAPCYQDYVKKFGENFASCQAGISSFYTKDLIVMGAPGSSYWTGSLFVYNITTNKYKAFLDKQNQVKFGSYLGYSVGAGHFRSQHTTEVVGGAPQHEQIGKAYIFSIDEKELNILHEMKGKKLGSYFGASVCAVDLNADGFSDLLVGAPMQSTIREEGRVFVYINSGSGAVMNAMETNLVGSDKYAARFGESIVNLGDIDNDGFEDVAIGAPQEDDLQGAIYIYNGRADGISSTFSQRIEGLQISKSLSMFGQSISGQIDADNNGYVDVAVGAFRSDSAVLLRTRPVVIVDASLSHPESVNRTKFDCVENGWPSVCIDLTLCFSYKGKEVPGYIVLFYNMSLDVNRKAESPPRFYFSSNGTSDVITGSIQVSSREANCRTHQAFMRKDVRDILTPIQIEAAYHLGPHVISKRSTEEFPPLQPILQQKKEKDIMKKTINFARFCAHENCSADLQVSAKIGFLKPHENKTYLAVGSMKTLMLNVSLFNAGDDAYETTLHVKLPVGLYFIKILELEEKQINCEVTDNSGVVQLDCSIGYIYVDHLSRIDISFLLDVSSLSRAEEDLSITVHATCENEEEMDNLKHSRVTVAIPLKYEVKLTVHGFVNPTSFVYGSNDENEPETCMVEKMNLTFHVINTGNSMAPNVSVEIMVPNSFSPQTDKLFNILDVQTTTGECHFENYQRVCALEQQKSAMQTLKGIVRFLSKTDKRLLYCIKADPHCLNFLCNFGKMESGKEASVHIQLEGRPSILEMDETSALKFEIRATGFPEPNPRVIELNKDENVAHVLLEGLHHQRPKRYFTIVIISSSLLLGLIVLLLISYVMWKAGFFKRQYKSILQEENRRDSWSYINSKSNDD
α4β7, sequence (P26010 20-798): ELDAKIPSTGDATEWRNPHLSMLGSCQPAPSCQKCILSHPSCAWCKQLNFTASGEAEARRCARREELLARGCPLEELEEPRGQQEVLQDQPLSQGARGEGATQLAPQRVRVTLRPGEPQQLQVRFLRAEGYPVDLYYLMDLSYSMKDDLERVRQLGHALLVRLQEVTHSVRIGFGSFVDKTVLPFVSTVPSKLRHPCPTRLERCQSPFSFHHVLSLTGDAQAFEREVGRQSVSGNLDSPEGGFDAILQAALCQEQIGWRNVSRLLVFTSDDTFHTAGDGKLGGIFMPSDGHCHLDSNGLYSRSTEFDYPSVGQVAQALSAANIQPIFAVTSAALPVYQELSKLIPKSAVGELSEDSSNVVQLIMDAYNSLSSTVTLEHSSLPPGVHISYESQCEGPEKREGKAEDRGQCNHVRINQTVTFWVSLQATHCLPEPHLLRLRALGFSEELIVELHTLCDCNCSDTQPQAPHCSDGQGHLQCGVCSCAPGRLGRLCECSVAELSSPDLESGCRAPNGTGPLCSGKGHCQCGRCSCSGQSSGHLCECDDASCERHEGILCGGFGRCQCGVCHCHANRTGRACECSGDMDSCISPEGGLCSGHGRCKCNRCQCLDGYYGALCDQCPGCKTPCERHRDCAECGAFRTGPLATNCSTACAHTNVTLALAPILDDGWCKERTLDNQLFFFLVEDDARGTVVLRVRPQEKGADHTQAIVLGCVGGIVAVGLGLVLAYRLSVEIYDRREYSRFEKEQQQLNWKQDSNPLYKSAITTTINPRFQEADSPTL
T1 sequence (P13612 34-977 limits assumed, stated change not applied): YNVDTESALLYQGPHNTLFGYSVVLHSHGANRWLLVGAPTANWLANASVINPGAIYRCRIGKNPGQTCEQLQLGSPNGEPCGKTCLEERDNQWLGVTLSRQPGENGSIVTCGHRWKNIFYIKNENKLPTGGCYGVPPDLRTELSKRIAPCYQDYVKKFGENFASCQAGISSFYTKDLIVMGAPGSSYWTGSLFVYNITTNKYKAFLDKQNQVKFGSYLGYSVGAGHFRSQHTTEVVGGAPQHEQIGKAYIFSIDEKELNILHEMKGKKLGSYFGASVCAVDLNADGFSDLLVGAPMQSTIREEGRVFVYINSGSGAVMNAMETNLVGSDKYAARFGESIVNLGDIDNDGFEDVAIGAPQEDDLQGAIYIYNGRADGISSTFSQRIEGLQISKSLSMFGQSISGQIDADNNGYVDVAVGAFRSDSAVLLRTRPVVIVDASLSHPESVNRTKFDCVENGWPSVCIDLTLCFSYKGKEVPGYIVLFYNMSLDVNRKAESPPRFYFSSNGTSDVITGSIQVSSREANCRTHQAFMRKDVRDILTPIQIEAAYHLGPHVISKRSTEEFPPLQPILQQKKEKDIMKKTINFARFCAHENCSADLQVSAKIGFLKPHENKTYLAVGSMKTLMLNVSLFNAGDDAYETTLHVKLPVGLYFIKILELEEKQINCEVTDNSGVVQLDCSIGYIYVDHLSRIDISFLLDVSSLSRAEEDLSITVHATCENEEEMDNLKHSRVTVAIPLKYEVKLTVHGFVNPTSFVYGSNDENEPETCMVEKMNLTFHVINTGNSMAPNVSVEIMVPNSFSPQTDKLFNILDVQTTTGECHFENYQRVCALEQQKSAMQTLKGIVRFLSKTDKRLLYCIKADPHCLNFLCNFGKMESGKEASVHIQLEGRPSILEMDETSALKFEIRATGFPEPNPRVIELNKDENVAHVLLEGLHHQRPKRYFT
T1 sequence (P05556 21-728 limits assumed, stated change not applied): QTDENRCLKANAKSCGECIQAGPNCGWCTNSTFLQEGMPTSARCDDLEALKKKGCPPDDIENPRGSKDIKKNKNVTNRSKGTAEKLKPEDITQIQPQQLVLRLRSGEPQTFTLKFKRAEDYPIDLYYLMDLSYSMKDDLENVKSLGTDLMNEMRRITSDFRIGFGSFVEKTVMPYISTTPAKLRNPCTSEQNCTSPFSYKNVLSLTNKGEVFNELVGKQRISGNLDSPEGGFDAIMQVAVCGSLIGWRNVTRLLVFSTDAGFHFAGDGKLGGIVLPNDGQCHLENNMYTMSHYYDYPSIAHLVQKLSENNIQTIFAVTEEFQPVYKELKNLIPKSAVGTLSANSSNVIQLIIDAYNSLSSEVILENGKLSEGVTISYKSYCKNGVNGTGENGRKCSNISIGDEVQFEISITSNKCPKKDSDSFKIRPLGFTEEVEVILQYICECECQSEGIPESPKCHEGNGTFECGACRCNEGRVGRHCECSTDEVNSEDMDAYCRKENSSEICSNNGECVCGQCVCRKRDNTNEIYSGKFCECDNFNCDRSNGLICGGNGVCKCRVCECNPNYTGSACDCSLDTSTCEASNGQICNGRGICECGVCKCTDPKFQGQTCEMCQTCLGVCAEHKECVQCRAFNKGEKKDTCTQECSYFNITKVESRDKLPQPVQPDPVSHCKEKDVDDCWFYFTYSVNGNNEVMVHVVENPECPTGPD

SMILES	pIC50 (α4β7)	pIC50 (α4β1)	half-life at 20 μM [1]
CC(=O)N[C@@H]1C(=O)N(C)[C@@H](CCCNC(=N)N)C(=O)N[C@@H](CO)C(=O)N[C@@H](CC(=O)O)C(=O)N[C@@H]([C@@H](C)O)C(=O)N[C@@H](CC(C)C)C(=O)N[C@H](C(=O)N[C@@H](Cc2ccc(C(C)(C)C)cc2)C(=O)N[C@@H](CCC(=O)O)CC(=O)N[C@H](CCCCNC(=O)COCC(=O)NCCCC[C@@H](NC(=O)C[C@H](CCC(=O)O)NC(=O)[C@H](Cc2ccc(C(C)(C)C)cc2)NC(=O)[C@H]2NC(=O)[C@H](CC(C)C)NC(=O)[C@H]([C@@H](C)O)NC(=O)[C@H](CC(=O)O)NC(=O)[C@H](CO)NC(=O)[C@H](CCCNC(=N)N)N(C)C(=O)[C@@H](NC(C)=O)C(C)(C)SSC2(C)C)C(N)=O)C(N)=O)C(C)(C)SSC1(C)C [compound 218, [Ac-Pen-(N-Me-Arg)-Ser-Asp-Thr-Leu-Pen-Phe(4-tBu)-(β-homoGlu)-(D-Lys)-NH2]2-DIG] (I: Ac-[Pen][NMeR]SDTL[Pen][Phe(4-tBu)][β3hE][dK]-NH2 / II: Ac-[Pen][NMeR]SDTL[Pen][Phe(4-tBu)][β3hE][dK]-NH2; disulfide I:1-I:7, II:1-II:7; linker I:10-II:10 via Diglycolyl)	8.70	6.31	> 6 h
CC(=O)N[C@H]1CSSC(C)(C)[C@@H](C(=O)N[C@@H](Cc2c[nH]c3ccccc23)C(=O)N[C@H](CCCCNC(=O)COCC(=O)NCCCC[C@@H](NC(=O)[C@H](Cc2c[nH]c3ccccc23)NC(=O)[C@H]2NC(=O)[C@H](CC(C)C)NC(=O)[C@H]([C@@H](C)O)NC(=O)[C@H](CC(=O)O)NC(=O)[C@H](CO)NC(=O)[C@H](CCCNC(=N)N)N(C)C(=O)[C@@H](NC(C)=O)CSSC2(C)C)C(N)=O)C(N)=O)NC(=O)[C@H](CC(C)C)NC(=O)[C@H]([C@@H](C)O)NC(=O)[C@H](CC(=O)O)NC(=O)[C@H](CO)NC(=O)[C@H](CCCNC(=N)N)N(C)C1=O [compound 204, (Ac-C-N-Me-R-S-D-T-L-Pen-W-k-NH2)2-DIG] (I: Ac-C[NMeR]SDTL[Pen]W[dK]-NH2 / II: Ac-C[NMeR]SDTL[Pen]W[dK]-NH2; disulfide I:1-I:7, II:1-II:7 (inferred); linker I:9-II:9 via Diglycolyl (inferred))	5.89	6.33	> 6 h
CC(=O)N[C@@H]1C(=O)N(C)[C@@H](CCCNC(=N)N)C(=O)N[C@@H](CO)C(=O)N[C@@H](CC(=O)O)C(=O)N[C@@H]([C@@H](C)O)C(=O)N[C@@H](CC(C)C)C(=O)N[C@H](C(=O)N[C@@H](Cc2c[nH]c3ccccc23)C(=O)N[C@@H](CCC(=O)O)C(=O)N(C)[C@@H](CCCCNC(=O)COCC(=O)NCCCC[C@@H](C(N)=O)N(C)C(=O)[C@H](CCC(=O)O)NC(=O)[C@H](Cc2c[nH]c3ccccc23)NC(=O)[C@H]2NC(=O)[C@H](CC(C)C)NC(=O)[C@H]([C@@H](C)O)NC(=O)[C@H](CC(=O)O)NC(=O)[C@H](CO)NC(=O)[C@H](CCCNC(=N)N)N(C)C(=O)[C@@H](NC(C)=O)C(C)(C)SSC2(C)C)C(N)=O)C(C)(C)SSC1(C)C [compound 215, [Ac-Pen-(N-Me-Arg)-Ser-Asp-Thr-Leu-Pen-Trp-Glu-(N-Me-Lys)-NH2]2-DIG] (I: Ac-[Pen][NMeR]SDTL[Pen]WE[NMeK]-NH2 / II: Ac-[Pen][NMeR]SDTL[Pen]WE[NMeK]-NH2; disulfide I:1-I:7, II:1-II:7 (inferred); linker I:10-II:10 via Diglycolyl (inferred))	7.78	6.57	> 6 h
CC(=O)N[C@@H]1C(=O)N(C)[C@@H](CCCNC(=N)N)C(=O)N[C@@H](CO)C(=O)N[C@@H](CC(=O)O)C(=O)N[C@@H]([C@@H](C)O)C(=O)N[C@@H](CC(C)C)C(=O)N[C@H](C(=O)N[C@@H](Cc2c[nH]c3ccccc23)C(=O)N[C@H](CCC(=O)O)C(=O)N[C@H](CCCCNC(=O)COCC(=O)NCCCC[C@@H](NC(=O)[C@@H](CCC(=O)O)NC(=O)[C@H](Cc2c[nH]c3ccccc23)NC(=O)[C@H]2NC(=O)[C@H](CC(C)C)NC(=O)[C@H]([C@@H](C)O)NC(=O)[C@H](CC(=O)O)NC(=O)[C@H](CO)NC(=O)[C@H](CCCNC(=N)N)N(C)C(=O)[C@@H](NC(C)=O)C(C)(C)SSC2(C)C)C(=O)O)C(=O)O)C(C)(C)SSC1(C)C [compound 216, (Ac-Pen-N-Me-R-S-D-T-L-Pen-W-e-k-OH)2-DIG] (I: Ac-[Pen][NMeR]SDTL[Pen]W[dE][dK]-OH / II: Ac-[Pen][NMeR]SDTL[Pen]W[dE][dK]-OH; disulfide I:1-I:7, II:1-II:7 (inferred); linker I:10-II:10 via Diglycolyl (inferred))	7.84	6.61	> 6 h
CC(=O)N[C@@H]1C(=O)N(C)[C@@H](CCCNC(=N)N)C(=O)N[C@@H](CO)C(=O)N[C@@H](CC(=O)O)C(=O)N[C@@H]([C@@H](C)O)C(=O)N[C@@H](CC(C)C)C(=O)N[C@H](C(=O)N[C@@H](Cc2c[nH]c3ccccc23)C(=O)N[C@@H](CCC(=O)O)C(=O)N(C)[C@H](CCCCNC(=O)COCC(=O)NCCCC[C@H](C(N)=O)N(C)C(=O)[C@H](CCC(=O)O)NC(=O)[C@H](Cc2c[nH]c3ccccc23)NC(=O)[C@H]2NC(=O)[C@H](CC(C)C)NC(=O)[C@H]([C@@H](C)O)NC(=O)[C@H](CC(=O)O)NC(=O)[C@H](CO)NC(=O)[C@H](CCCNC(=N)N)N(C)C(=O)[C@@H](NC(C)=O)C(C)(C)SSC2(C)C)C(N)=O)C(C)(C)SSC1(C)C [compound 214, [Ac-Pen-(N-Me-Arg)-Ser-Asp-Thr-Leu-Pen-Trp-Glu-(N-Me-D-Lys)-NH2]2-DIG] (I: Ac-[Pen][NMeR]SDTL[Pen]WE[dNMeK]-NH2 / II: Ac-[Pen][NMeR]SDTL[Pen]WE[dNMeK]-NH2; disulfide I:1-I:7, II:1-II:7 (inferred); linker I:10-II:10 via Diglycolyl (inferred))	7.61	6.36	> 6 h
CC(=O)N[C@@H]1C(=O)N(C)[C@@H](CCCNC(=N)N)C(=O)N[C@@H](CO)C(=O)N[C@@H](CC(=O)O)C(=O)N[C@@H]([C@@H](C)O)C(=O)N[C@@H](CC(C)C)C(=O)N[C@H](C(=O)N[C@@H](Cc2c[nH]c3ccccc23)C(=O)N[C@H](CCCCNC(=O)COCC(=O)NCCCC[C@@H](NC(=O)[C@H](Cc2c[nH]c3ccccc23)NC(=O)[C@H]2NC(=O)[C@H](CC(C)C)NC(=O)[C@H]([C@@H](C)O)NC(=O)[C@H](CC(=O)O)NC(=O)[C@H](CO)NC(=O)[C@H](CCCNC(=N)N)N(C)C(=O)[C@@H](NC(C)=O)C(C)(C)SSC2(C)C)C(N)=O)C(N)=O)C(C)(C)SSC1(C)C [compound 209, (Ac-Pen-N-Me-R-S-D-T-L-Pen-W-k-NH2)2-DIG] (I: Ac-[Pen][NMeR]SDTL[Pen]W[dK]-NH2 / II: Ac-[Pen][NMeR]SDTL[Pen]W[dK]-NH2; disulfide I:1-I:7, II:1-II:7 (inferred); linker I:9-II:9 via Diglycolyl (inferred))	6.59	6.43	> 3 h
